Experiments:
Format in all cases: cell-based, human
[1] = system: HOK-16B cells; assay: Cell adhesion assay on coated plates (crystal violet absorbance at 570 nm / cell counting); settings: HOK-16B cells, 10 μg/well truncated or Ala-substituted peptide coating, 1 h
Method: The cell adhesion assay was performed according to a method reported by Okazaki et al. (J. Biol. Chem., 277:37070, 2002). In detail, 24-well culture plates (Nunc, Roskilde, Denmark) were coated with various amounts of rLG proteins at 4° C. overnight. The peptides were also coated on plates by drying overnight. The substrate-coated on the plates were blocked by adding 1% heat-inactivated bovine serum albumin (BSA) in PBS for 1 h at 37° C. and washed twice with PBS. The cells in the Experimental Example 1, detached by 0.05% tyrpsin and 0.53 mM EDTA in PBS and resuspended in culture media, were added (1×10^5 cells/500 μl) to each plate and incubated for 1 h at 37° C. After incubation, unattached cells were removed by rinsing twice with PBS. The attached cells were fixed with 10% formalin in PBS for 15 min, rinsed twice with PBS, and stained with 0.5% crystal violet for 1 h. The plates were gently rinsed with DDW three times and lysed with 2% SDS for 5 min. Absorbance was measured at 570 nm in a Bio-Rad Model 550 microplate reader (BioRad).
The cell adhesion and spreading activities on peptide-coated plates were examined using HOK-16B cells by the same method as Experimental Example 2. 24-well plates were coated with 10, 20, 30, 40 and 50 μg/well peptides P1 to P5, respectively. HOK-16B cells were added to peptide-coated plates and cultured for 1 h in serum-free medium for 1 hr. After the unbound cells were washed off, adherent cells were fixed and stained with crystal violet, and then the stained cells were analyzed. Absorbance was measured at 570 nm in a microplate reader. BSA and the rLG3 were used as negative control and positive control, respectively.
It was observed that peptide P4 promotes strong cell adhesion and spreading activities and binds to integrin α3β1 in the Example 4. Therefore, to determine the biologically active core sequences in peptide P4, five synthetic peptides (P4 D-I to P4 D-V), which are C-terminal truncated peptides from the peptide P4, and six synthetic peptides (P4 D-N1 to P4 D-N6), which are N-terminal truncated peptides from the peptide P4 were prepared (FIG. 6A) and examined for HOK-16B cell adhesion and spreading activities on peptide-coated plates by the present inventors. 24-well plates were coated with 10 μg/well C-terminal truncated peptides or N-terminal truncated peptides, and HOK-16B cells were added to the plates, and then cultured in serum-free medium for 1 hr. After the unbound cells were washed off, the adherent cells were fixed to stain with crystal violet, and the stained cells were analyzed. Absorbance was measured at 570 nm in a microplate reader. Peptide P4 and BSA were used as the positive and negative controls, respectively.
24-well plates were coated with 10 μg/well peptides, and HOK-16B cells were added to the plates, and then cultured in serum-free medium for 1 hr. After the unbound cells were washed off, the adherent cells were fixed to stain with crystal violet, and the stained cells were analyzed. Peptide P4 and BSA were used as the positive and negative controls, respectively. The results were expressed as mean ±SD of the four independent experiments.

[2] = system: HOK-16B cells; assay: Cell spreading activity assay on coated plates; settings: HOK-16B cells, 10 μg/well truncated or Ala-substituted peptide coating, 1 h
Method: To identify spreading cells, attached cells were fixed with 10% formalin in PBS for 15 min, rinsed twice with PBS, and stained with 0.005% crystal violet for 1 h. The plates were then gently rinsed with DDW. To ensure a representative count, each plate was divided into quarters, two fields per quarter were photographed using an Olympus BX51 microscope at 100× magnification. Cells that had adopted a flattened, polygonal shape, with filopodia-and lamellipodia-like extensions were considered to be spreading cells. In contrast, cells that resisted being washed and remained tethered to the plate surface were considered to be non-spreading cells.
To examine the adhesion activity of peptide P4 in detail, the inventors examined whether the adherent cells were tethered to the substratum or spread over the substratum. The BSA and rLG3 were used as the negative control and positive control, respectively, the percentage of cells displaying a spreading morphology was quantified by dividing the number of spreading cells by the total number of bound cells.

[3] = system: FAK; assay: FAK phosphorylation assay (immunoblot, p-FAK/t-FAK); settings: for FAK phosphorylation level at Tyr-397: peptides 50 μg/60-mm dish
Method: The FAK phosphorylation assays were performed according to a method of Shang et al. (J. Biol. Chem., 276:33045, 2001). In detail, the HOK-16B cells were trypsinized, washed, and kept in suspension in serum-free KGM with 0.1% BSA for 1 h at 37° C. The 60-mm culture dishes were coated with laminin (5 μg/ml) or rLG3 protein (25 μg/ml) at 4° C. overnight. Peptides (50 μg/60-mm culture dish) were also coated on dishes by drying overnight. For the adherent FAK assay, 1×10^6 cells were plated onto uncoated, laminin-coated, rLG3 protein-coated, or various peptide-coated dishes and allowed to attach for 15, 30, or 60 min at 37° C. in an atmosphere of 5% CO2. At the end of the incubation, cells were washed with ice-cold PBS and lysed in RIPA buffer (50 mM Tris [pH 7.4], 150 mM NaCl, 1% Nonidet P-40, 0.5% Na-deoxycholate, 1 mM EDTA, 0.1% SDS, 2 mM Na3VO4, 1 mM glycerol phosphate, 1 mM PMSF, and protease inhibitor cocktail). Lysates were clarified by centrifugation at 12,000×g for 10 min at 4° C. to isolate cytosolic extracts.
The cytosolic extracts were denatured using SDS sample buffer [50 mM Tris-HCl (pH 6.8), 2% SDS, 10% glycerol, 0.1% bromophenol blue, 100 mM β-mercaptoethanol] and separated on an 8% SDS-polyacrylamide gel. Electrophoretic transfer of SDS-PAGE gel separated with protein to a nitrocellulose membrane was followed by immnoblotting with polyclonal anti-FAK antibodies to determine the total FAK level or immnoblotting with polyclonal anti-FAK [pY^397], [pY^407], [pY^576], [pY^577] or [pY^861] antibodies to determine the extent of tyrosine phosphorylation. The relative fold induction of FAK phosphorylation, defined as an increase in FAK phosphorylation of a sample relative to its corresponding background level (i.e., cells plated on plastic) was determined as follows: First, the densitomerty intensity of the phosphorylated FAK (p-FAK) and the total FAK (t-FAK) signals from the Western blots were measured with a LAS-1000plus (Fuji photo film, Japan). The ratio of p-FAK to t-FAK (p-FAK/t-FAK) for each sample was then calculated to correct for differences in protein loading. This ratio was normalized to the p-FAK/t-FAK ratio of the negative controls to obtain the relative fold induction of FAK phosphorylation.
HOK-16B cells isolated by trypsinization were suspended for 1 hr, and kept in suspension (Sus), or replated on 60-mm culture dishes coated with or without laminin (5 μg/ml). The cells were kept for 15, 30, or 60 min for being attached on plates, then cell lysates were analyzed by immunoblot analysis with anti-FAK p-Y397 antibody (Biosource, Camariollo, Calif.). […] This effect was observed within 15 min and peaked at 15 min after exposure to the laminin-coated plate (FIG. 8A).
Therefore, the extent of FAK phosphorylation at Tyr-397,-407,-576, -577, and -861 was investigated in HOK-16B cells cultured on plates coated with laminin (5 μg/ml), rLG3 (25 μg/ml), or peptides P1-P5 (50 μg/60-mm dish) for 15 min. The lysates were immnoblotted with polyclonal anti-FAK, p-Y397, p-Y407, p-Y576, p-Y577 or p-Y861 antibodies (Biosoucce, Camariollo, Calif.), and the total FAK level was detected using anti-FAK antibodies (Upstate Biotechnology, Lake Placid, N.Y. The ratio of p-FAK to t-FAK (p-FAK/t-FAK) for each sample was then calculated to correct for differences in protein loading. This ratio was normalized to the p-FAK/t-FAK ratio of the negative controls (cells on plates) to obtain the relative fold induction of FAK phosphorylation. As a result, the extent of FAK phosphorylation at Tyr-397 cultured on the laminin-coated or rLG3 protein-coated plates increased 16.2- and 8.2-fold compared with the untreated control (FIG. 8B).

[4] = HOK-16B cells on coated dishes, laminin 5 μg/ml

Substance	cell adhesion activity compared to the peptide P4 control [1]	cell spreading activity compared to the peptide P4 control [2]	FAK phosphorylation level at Tyr-397 [3, 4]	changes of the FAK phosphorylation levels at Tyr-407, -576 and -861 ([3]; HOK-16B cells on coated dishes, 15 min)	increase of FAK phosphorylation at Tyr-397 compared with the untreated control ([3]; HOK-16B cells, 15 min, laminin 5 μg/ml or rLG3 25 μg/ml coating, p-FAK/t-FAK normalized) [fold]	time of peak FAK phosphorylation at Tyr-397 after exposure to coated plate ([3]; laminin 5 μg/ml, 15, 30 or 60 min tested) [min]
P4-S2: peptide P4 in which Ala substituted for Arg (PPFLMLLKGSTA)	significantly inhibited	significantly inhibited	significantly decreased			
P4-S3: peptide P4 in which Ala substituted for both Lys and Arg (PPFLMLLAGSTA)	significantly inhibited	significantly inhibited	significantly decreased			
laminin [reference compound]			notably higher	not observed	16.2	15

From patent US7517654B2, “Peptide and a derivative thereof promoting cell adhesion and spreading” (Seoul National University Industry Foundation, priority 2004, dated 2009)
